Assay results: ChEMBL document CHEMBL1201862, “PubChem BioAssay data set” (2004)
One block for each compound: values may come before it. Activity calls are given as the source filed them.

Assays:
[1] = target: T1, ATP-dependent translocase ABCB1 (Homo sapiens, UniProt P08183); test: P-gp JC-1 efflux blockade concentration-response – Jurkat-DNR cells, flow cytometry, set 2, dose response (AID 504569); type: functional; details: read-out: EC50_MICROM_;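 further: potency of pump inhibitors that raise cellular JC-1 green fluorescence up to the nicardipine level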
T1 sequence (P08183 whole entry): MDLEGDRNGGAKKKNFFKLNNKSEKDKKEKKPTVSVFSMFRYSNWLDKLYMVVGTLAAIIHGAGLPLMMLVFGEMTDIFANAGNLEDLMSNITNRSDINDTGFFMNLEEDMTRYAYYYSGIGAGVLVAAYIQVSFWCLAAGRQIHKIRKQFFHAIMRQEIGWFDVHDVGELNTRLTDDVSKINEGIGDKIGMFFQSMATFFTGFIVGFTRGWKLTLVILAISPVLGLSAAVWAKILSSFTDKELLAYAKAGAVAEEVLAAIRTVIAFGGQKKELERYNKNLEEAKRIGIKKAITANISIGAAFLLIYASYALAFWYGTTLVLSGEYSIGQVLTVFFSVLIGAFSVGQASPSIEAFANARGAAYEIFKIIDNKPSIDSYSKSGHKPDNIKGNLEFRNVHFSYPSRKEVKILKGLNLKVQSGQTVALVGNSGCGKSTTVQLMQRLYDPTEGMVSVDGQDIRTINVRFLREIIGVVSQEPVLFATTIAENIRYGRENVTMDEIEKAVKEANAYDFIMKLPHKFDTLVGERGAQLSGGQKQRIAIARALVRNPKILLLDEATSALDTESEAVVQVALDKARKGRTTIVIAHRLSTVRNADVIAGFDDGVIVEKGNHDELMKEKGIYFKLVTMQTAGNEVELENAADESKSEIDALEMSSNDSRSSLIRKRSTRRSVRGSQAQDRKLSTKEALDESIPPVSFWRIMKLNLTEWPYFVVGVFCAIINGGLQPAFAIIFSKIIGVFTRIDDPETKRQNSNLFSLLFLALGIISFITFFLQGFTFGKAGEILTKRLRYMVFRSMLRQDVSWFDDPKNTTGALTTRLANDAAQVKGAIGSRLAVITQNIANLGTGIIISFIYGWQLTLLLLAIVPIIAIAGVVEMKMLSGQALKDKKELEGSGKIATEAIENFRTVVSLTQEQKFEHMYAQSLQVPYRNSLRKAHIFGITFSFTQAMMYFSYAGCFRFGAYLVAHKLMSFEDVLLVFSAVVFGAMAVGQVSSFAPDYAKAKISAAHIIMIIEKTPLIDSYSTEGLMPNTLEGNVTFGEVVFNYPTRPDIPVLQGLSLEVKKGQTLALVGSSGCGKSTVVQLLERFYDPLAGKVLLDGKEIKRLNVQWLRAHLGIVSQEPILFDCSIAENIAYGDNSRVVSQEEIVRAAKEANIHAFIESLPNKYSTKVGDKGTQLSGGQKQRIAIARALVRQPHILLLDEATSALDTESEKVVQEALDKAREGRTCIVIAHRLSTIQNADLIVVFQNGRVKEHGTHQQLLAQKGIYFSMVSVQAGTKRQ

[2] = target: T1, ATP-dependent translocase ABCB1; test: inhibition of BCRP-mediated JC-1 efflux – Ig-MXP3 cells, flow cytometry, set 2, dose response (AID 504566); type: functional; details: read-out: EC50_MICROM_;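 further: flow cytometry median green fluorescence of retained JC-1 dye; potency of efflux pump inhibition measured as rising substrate retention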
H9c2 = test: cells; type: functional, cell-based; details: Rattus norvegicus, H9c2, Myocardium;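 further: confirmatory concentration-response retest of ultra-high-throughput screening hits for modulation of myocardial damage; cell death induced by hydrogen peroxide oxidative stress; compound pretreatment for 60 min then peroxide exposure for 2 h; potency is for protecting the cells against peroxide damage rather than for killing them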
[3] = target: T2, Apoptotic protease-activating factor 1 (Homo sapiens, UniProt O14727); test: SAR analysis of small molecule Activators of Apaf-1 in a Fluorescent assay.; type: functional; details: read-out: EC50_Mean;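 further: caspase-3 cleavage of fluorogenic Rh110 DEVD substrate downstream of apoptosome activation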
T2 sequence (O14727 whole entry): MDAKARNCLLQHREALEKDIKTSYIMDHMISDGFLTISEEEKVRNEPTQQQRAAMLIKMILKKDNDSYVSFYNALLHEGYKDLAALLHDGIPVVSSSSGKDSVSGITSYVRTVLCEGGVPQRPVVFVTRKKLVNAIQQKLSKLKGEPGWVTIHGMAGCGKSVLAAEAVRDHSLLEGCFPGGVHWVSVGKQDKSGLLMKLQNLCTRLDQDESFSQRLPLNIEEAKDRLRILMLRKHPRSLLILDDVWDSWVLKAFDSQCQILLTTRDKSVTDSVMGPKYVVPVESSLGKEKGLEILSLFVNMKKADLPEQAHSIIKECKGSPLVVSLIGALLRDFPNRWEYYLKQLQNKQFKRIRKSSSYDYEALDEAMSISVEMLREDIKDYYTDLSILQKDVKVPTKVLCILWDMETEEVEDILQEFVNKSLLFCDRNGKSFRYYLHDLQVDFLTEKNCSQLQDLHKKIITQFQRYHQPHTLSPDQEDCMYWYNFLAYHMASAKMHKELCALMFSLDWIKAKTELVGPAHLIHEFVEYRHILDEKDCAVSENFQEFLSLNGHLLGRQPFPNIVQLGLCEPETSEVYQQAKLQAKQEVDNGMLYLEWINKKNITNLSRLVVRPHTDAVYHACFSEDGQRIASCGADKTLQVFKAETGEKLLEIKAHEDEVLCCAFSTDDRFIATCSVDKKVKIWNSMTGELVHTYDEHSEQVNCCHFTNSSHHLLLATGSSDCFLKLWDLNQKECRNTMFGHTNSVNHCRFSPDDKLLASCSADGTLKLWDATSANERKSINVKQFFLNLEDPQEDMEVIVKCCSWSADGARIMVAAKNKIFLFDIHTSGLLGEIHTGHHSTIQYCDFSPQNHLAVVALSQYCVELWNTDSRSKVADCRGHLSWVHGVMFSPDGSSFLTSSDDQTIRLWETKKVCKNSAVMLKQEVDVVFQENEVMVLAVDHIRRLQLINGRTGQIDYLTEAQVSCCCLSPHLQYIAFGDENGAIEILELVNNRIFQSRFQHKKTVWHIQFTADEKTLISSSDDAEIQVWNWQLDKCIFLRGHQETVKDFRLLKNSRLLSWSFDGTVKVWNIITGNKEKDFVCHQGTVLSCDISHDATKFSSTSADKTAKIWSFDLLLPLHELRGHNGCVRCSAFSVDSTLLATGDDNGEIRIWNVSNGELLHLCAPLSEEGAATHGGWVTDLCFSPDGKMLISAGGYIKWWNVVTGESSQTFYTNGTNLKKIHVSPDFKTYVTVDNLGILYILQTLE

Steroidogenic factor 1 = Steroidogenic factor 1 (Homo sapiens, UniProt Q13285); test: Counterscreen for inverse agonists of the liver receptor homolog-1 (LRH-1; NR5A2): Luminescence-based cell-based high throughput dose response assay to identify inverse agonists of the Steroidogenic Factor 1 Nuclear Receptor (SF1; NR5A1).; type: functional
Chain of Steroidogenic factor 1 (Q13285 whole entry): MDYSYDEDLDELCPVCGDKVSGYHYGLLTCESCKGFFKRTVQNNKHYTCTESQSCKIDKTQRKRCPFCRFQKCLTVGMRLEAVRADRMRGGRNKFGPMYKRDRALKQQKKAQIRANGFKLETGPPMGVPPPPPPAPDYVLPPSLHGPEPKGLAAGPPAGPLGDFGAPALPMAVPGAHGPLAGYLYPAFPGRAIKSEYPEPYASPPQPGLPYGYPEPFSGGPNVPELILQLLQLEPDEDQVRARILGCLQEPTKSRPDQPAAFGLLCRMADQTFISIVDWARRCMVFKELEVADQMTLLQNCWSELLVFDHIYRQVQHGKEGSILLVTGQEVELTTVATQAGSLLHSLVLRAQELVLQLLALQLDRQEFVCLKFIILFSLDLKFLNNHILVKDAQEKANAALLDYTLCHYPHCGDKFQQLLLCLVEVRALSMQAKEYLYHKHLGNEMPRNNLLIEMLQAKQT

[4] = target: Nuclear receptor subfamily 5 group A member 2 (Homo sapiens, UniProt O00482); type: functional, cell-based;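 further: HEK293T cells transfected with LRH-1 and a StAR promoter luciferase reporter; potency for inhibitors that lower LRH-1 driven reporter light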
Chain of Nuclear receptor subfamily 5 group A member 2 (O00482 whole entry): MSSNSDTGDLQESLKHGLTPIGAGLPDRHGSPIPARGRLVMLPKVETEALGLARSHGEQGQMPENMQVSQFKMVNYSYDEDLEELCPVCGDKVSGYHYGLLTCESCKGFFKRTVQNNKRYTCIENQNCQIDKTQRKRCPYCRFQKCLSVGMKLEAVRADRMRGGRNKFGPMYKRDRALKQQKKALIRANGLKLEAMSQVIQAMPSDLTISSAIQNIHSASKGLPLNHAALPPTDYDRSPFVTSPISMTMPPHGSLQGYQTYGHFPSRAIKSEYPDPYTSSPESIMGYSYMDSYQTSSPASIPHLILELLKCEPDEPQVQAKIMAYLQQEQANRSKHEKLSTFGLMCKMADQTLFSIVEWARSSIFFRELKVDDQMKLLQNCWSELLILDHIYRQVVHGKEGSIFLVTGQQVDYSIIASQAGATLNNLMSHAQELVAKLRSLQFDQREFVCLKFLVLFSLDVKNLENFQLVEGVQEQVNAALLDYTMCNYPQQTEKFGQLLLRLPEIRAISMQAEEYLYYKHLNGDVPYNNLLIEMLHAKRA

[5] = nonselective StAR promoter luciferase inhibitors – cell-based, luminescence, luciferase reporter, counter-screen for LRH-1 inverse agonist project, dose response (AID 651969); type: functional

Compound: O=C(c1ccoc1)N1CCN(c2cc(-c3ccncc3)nc3cc(-c4cccc(Cl)c4)nn23)CC1
EC50 [1]: 3.43 µM (active)
EC50 [2]: 2.21 µM (active)
IC50 (H9c2): > 79 µM (inactive)

EC50 [3]: > 100 µM (inactive)
Compound: O=C(O)c1coc(-c2ccc(-c3ccccc3)cc2)n1

Compound: CC(=O)Nc1ccc(NC(=O)CSc2nnc(-c3cc4ccccc4o3)n2C)cc1
IC50 (Steroidogenic factor 1): 18.2 µM (inactive)
IC50 [4]: 35.9 µM (inactive)
IC50 [5]: 35.9 µM (inactive)
